Data on seven molecules can be found in patent US9370555B2, “Surfactant protein D for the treatment of disorders associated with lung injury” (priority 1998, dated 2016).

“Also recorded” adds a separate entry of the source.

The subject of assay [1] is RAW 264.7 murine macrophage cell line. Description: MMP-9 production by RAW 264.7 macrophages (zymography). The format is cell-based, mouse. To be noted: 10 μM, 24 hours.
Protocol: RAW 264.7 murine macrophage cell line was obtained from the American Type Culture Collection (Rockville, Md.) and maintained in DMEM containing 10% FBS, 10 mM HEPES, 50 U/ml penicillin and 50 μg/mL streptomycin. 2×10^5 cells in 24-well plates were incubated with or without 10 μM menadione (Sigma, St. Louis, Mo.) for 24 hours. To assess whether ROS directly stimulated MMP production, RAW 264.7 macrophages were incubated with 10 μM of menadione, a ROS generator, for 24 hours.
A further assay has as its system MMP-2 and 9. In words: Gelatin zymography of conditioned media from alveolar macrophages of SP-D(−/−) mice. The format is cell-based, mouse. To be noted: for gelatinolytic activity of MMP-2 and 9 in conditioned media: AMs from SP-D(−/−) mice, 20 mM NAC, 200 μM PDTC, 1 μM DPI, 1 mM apocynin, 10 μM SN-50, 24 h. As for the experimental part:
Isolation of alveolar macrophages (AMs) from bronchoalveolar lavage (BAL) was performed by instilling ten, 1 ml aliquots of phosphate-buffered saline (PBS). BAL fluid from several animals was pooled to provide sufficient numbers of macrophages for each analysis. The lavage was centrifuged at 1200 rpm at 7 min and pelleted cells were resuspended in serum-free RPMI medium containing 1% of Nutriodoma (Boehringer Mannheim, Indianapolis, Ind.), and counted with a hemocytometer. More than 90% of BAL cells were AM in both WT and SP-D (−/−) mice. For some experiments, alveolar macrophages (AMs) were isolated by differential attachment to tissue culture flasks at 37° C. Non-adherent cells were then removed, and fresh, serum-free medium was added. The adherent AMs were maintained in a humidified atmosphere containing 5% CO2 and 95% air until the end of the experiments. To determine whether increased oxidant production mediated the expression of MMPs by AMs from SP-D (−/−) mice, the cells were treated with N-acetylcysteine (NAC) and pyrrolidine dithiocarbamate (PDTC), both antioxidant reagents as follows: AMs from SP-D (−/−) mice were pooled and placed in culture at a concentration of 5×10^5 cells per well in serum-free RPMI medium. The AMs were treated with 20 mM N-acetylcysteine (NAC), 200 μM pyrolidine dithiocarbamate (PDTC), 1 μM diphenylene iodonium chloride (DPI) (Sigma, St. Louis, Mo.), or 1 mM apocynin (Aldrich, Milwaukee, Wis.). Cells were also incubated with a 10 μM SN-50 (Calbiochem, LaJolla, Calif.), an inhibitor of NF-κB nuclear import. After 6 h incubation, supernatants were removed and the cells were washed and incubated with fresh media including the reagents for 24 h. […] RAW 264.7 murine macrophage cell line was obtained from the American Type Culture Collection (Rockville, Md.) and maintained in DMEM containing 10% FBS, 10 mM HEPES, 50 U/ml penicillin and 50 μg/mL streptomycin. 2×10^5 cells in 24-well plates were incubated with or without 10 μM menadione (Sigma, St. Louis, Mo.) for 24 hours. Gelatinolytic activity in the culture media of untreated and treated cells was analyzed by SDS-PAGE zymography (FIGS. 29A-29D). Gelatin Zymography was performed as follows: MMP activities were measured in macrophage-conditioned media. Proteinases in the conditioned media were concentrated by incubation with gelatin-agarose beads (Amersham Pharmacia, Arlington Heights, Ill.) for 2 h at 4° C. The beads were pelleted and washed, and proteinases eluted by incubation in sample buffer for 45 min at 37° C. The samples then were electrophoresed into 10% Zymogram gelatin gels (NOVEX, San Diego, Calif.). […] Gels were stained with 0.5% (wt/vol) Coomassie blue in 50% methanol and 10% acetic acid for 30 min, then destained. MMPs were detected as clear bands against a blue background.

For the next assay, the system named is MMP-2 and 9 mRNA. Description: RT-PCR of MMP-2 and 9 mRNA in cultured AMs from SP-D(−/−) mice. The format is cell-based, mouse. Conditions: 1 mM apocynin.
A further assay deals with NF-κB. Description: EMSA of nuclear extracts from AMs of SP-D(−/−) mice, NF-κB oligonucleotide. The format is cell-based, mouse. To be noted: AMs isolated from SP-D(−/−) mice. As for the experimental part:
(§1) To assess whether apocyanin affected binding of nuclear extracts, the following protocol was used: Nuclear extracts were obtained using a modified method previously described (Sever Chroneos, et al. Am. J. Physiol. 277:L79). Lavaged cells were lysed with Buffer A (10 mM Hepes, 10 mM KCl, 0.1 mM EDTA, 1.5 mM MgCl2, 0.2% Nonidet P-40 (NP-40), 1 mM DTT, 0.5 mM PMSF), followed by vortexing to shear the cytoplasmic membranes. Nuclei were pelleted by centrifugation at 3000 rpm for 3 min at 4° C. in a microcentrifuge. Nuclear proteins were extracted with high-salt buffer C (20 mM Hepes, 25% glycerol, 1.5 mM MgCl2, 0.1 mM EDTA, 1.5 mM MgCl2, 420 mM NaCl, 1 mM DTT, 0.5 mM PMSF) and stored at −80° C. Total nuclear protein concentrations were determined by bicinchoninic acid (BCA) method.

The test system of another assay is AP-1. In words: EMSA of nuclear extracts from AMs of SP-D(−/−) mice, AP-1 oligonucleotide. The format is cell-based, mouse. Conditions: AMs isolated from SP-D(−/−) mice. As for the experimental part: as §1
A further assay concerns SP-D(−/−) mice. In words: Treatment of SP-D(−/−) mice with purified mouse SP-D: saturated PC pools. To be noted: 2.9 μg intratracheally at 24 hour intervals, 3 to 7 doses. The format is in vivo.
In assay [2] the test system is influenza A virus A/Phillipines/82 (H3N2) (Phil/82). The format is in vivo. To be noted: SP-D −/− mice.

As for `CC1=CC(=O)c2ccccc2C1=O` [menadione], the MMP-9 production entry in assay [1] is given as “increased”.

Turning to `COc1cc(C(C)=O)ccc1O` [apocynin], in the assay on MMP-2 and 9, the “gelatinolytic activity of MMP-2 and 9 in conditioned media” value (from here on “gelatinolytic activity”) was “markedly suppressed MMP enzymatic activity; also recorded: markedly decreased MMP activity”. In the assay on MMP-2 and 9 mRNA, the “MMP-2 and 9 mRNA” value is “reduced MMP-2 and 9 mRNA”. Besides, the “binding of nuclear extracts to NF-κB oligonucleotide (EMSA)” value is “reduced DNA binding activity of NF-κB” with NF-κB and “reduced binding of nuclear extracts” in the assay with NF-κB (listed as Apocynin). For the same molecule, the “DNA binding activity to an AP-1 oligonucleotide (EMSA)” value in the assay on AP-1 was “decreased DNA binding activity”.

In the case of `c1ccc2c(c1)[I+]c1ccccc1-2` [DPI, diphenylene iodonium chloride], in the assay on MMP-2 and 9, the “gelatinolytic activity” value is recorded as “markedly suppressed MMP enzymatic activity; also recorded: markedly decreased MMP activity”.

`S=C(S)N1CCCC1` [PDTC, pyrrolidine dithiocarbamate]: the “gelatinolytic activity” value with MMP-2 and 9 is “reduced gelatinolytic activity; also recorded: inhibited gelatinolytic activities of MMP-2 and 9”.

Take `CC(=O)N[C@@H](CS)C(=O)O` [NAC, N-acetylcysteine]: the “gelatinolytic activity” value with MMP-2 and 9 is “reduced gelatinolytic activity; also recorded: inhibited gelatinolytic activities of MMP-2 and 9”.

B1: purified mouse SP-D: Surfactant protein D purified from BAL fluid of GMCSF and SP-A double null mutant mice on maltosyl-agarose (protein, UniProt P50404 20-374, looked up)
Pulmonary …: AEMKSLSQRSVPNTCTLVMCSPTENGLPGRDGRDGREGPRGEKGDPGLPGPMGLSGLQGPTGPVGPKGENGSAGEPGPKGERGLSGPPGLPGIPGPAGKEGPSGKQGNIGPQGKPGPKGEAGPKGEVGAPGMQGSTGAKGSTGPKGERGAPGVQGAPGNAGAAGPAGPAGPQGAPGSRGPPGLKGDRGVPGDRGIKGESGLPDSAALRQQMEALKGKLQRLEVAFSHYQKAALFPDGRSVGDKIFRTADSEKPFEDAQEMCKQAGGQLASPRSATENAAIQQLITAHNKAAFLSMTDVGTEGKFTYPTGEPLVYSNWAPGEPNNNGGAENCVEIFTNGQWNDKACGEQRLVICEF
In the case of B1, the “Saturated PC levels in alveolar lavage and total lung lavage (lipid accumulation)” value in the assay on SP-D(−/−) mice was “partial correction of lipid accumulation; also recorded: decreased both alveolar and saturated PC pools”. Also, the “MMP production by AMs” value in the assay with MMP-2 and 9 (mouse SP-D 5 μg/ml in vitro) is recorded as “did not reduce MMP production”.

B2: recombinant SP-D: Recombinant human SP-D dodecamers secreted by CHO-K1 cells transfected with full-length human cDNA (protein)
chain: AEMKSLSQRSVPNTCTLVMCSPTENGLPGRDGRDGREGPRGEKGDPGLPGPMGLSGLQGPTGPVGPKGENGSAGEPGPKGERGLSGPPGLPGIPGPAGKEGPSGKQGNIGPQGKPGPKGEAGPKGEVGAPGMQGSTGAKGSTGPKGERGAPGVQGAPGNAGAAGPAGPAGPQGAPGSRGPPGLKGDRGVPGDRGIKGESGLPDSAALRQQMEALKGKLQRLEVAFSHYQKAALFPDGRSVGDKIFRTADSEKPFEDAQEMCKQAGGQLASPRSATENAAIQQLITAHNKAAFLSMTDVGTEGKFTYPTGEPLVYSNWAPGEPNNNGGAENCVEIFTNGQWNDKACGEQRLVICEF
As for B2, the “IAV (Phil/82) titer in lung” value in assay [2] (5 μg intratracheal co-administration, 3 days after infection, untreated 1.6×10^5±4.0×10^4, mean±SEM) was 7.5×10^4±1.4×10^4 ff/gram lung. The “clearance of IAV from the lung” value in assay [2] (co-administration of recombinant SP-D) is reported as “normalized viral clearance; also recorded: enhanced clearance”.
